Laboratory results taken from the CheMixHub viscosity set.

Assay: xn = mol fraction of the nth substance listed

CC(Cl)(Cl)Cl + Cc1ccccc1
303.15 K, 101 kPa
Conditions	viscosity [mPa·s]
x1 = 0.1635	0.5716
x1 = 0.2871	0.6046
x1 = 0.3684	0.6248
x1 = 0.4152	0.6363
x1 = 0.4825	0.6505
x1 = 0.5694	0.6666
x1 = 0.6729	0.6834
x1 = 0.763	0.6958
x1 = 0.8412	0.7049
x1 = 0.9286	0.7156

CC(Cl)(Cl)Cl + COCC(C)O
298.15 K, 101.33 kPa
Conditions	viscosity [mPa·s]
x1 = 0.101	1.508
x1 = 0.2	1.362
x1 = 0.3	1.232
x1 = 0.4	1.119
x1 = 0.501	1.021
x1 = 0.601	0.9385
x1 = 0.7	0.8715
x1 = 0.72	0.8596
x1 = 0.837	0.8044
x1 = 0.908	0.785

CC(Cl)(Cl)Cl + C1CCOC1
303.15 K, 101 kPa
Conditions	viscosity [mPa·s]
x2 = 0.0731	0.7289
x2 = 0.1213	0.7262
x2 = 0.2262	0.7112
x2 = 0.3894	0.6687
x2 = 0.4716	0.6424
x2 = 0.5677	0.6104
x2 = 0.6475	0.5834
x2 = 0.7415	0.5513
x2 = 0.8139	0.5271
x2 = 0.866	0.51

CCCC[N+](CCCC)(CCCC)CCCC.[OH-] + CS(C)=O
viscosity [mPa·s], 100 kPa
Conditions	298.15 K	303.15 K	308.15 K	313.15 K
x1 = 0.0159	2.19	2.01	1.87	1.77
x1 = 0.0368	2.43	2.31	2.19	2.12
x1 = 0.0632	2.72	2.58	2.47	2.38
x1 = 0.0911	3.02	2.88	2.77	2.7
x1 = 0.1206	3.32	3.18	3.08	3
x1 = 0.1519	3.65	3.5	3.4	3.33
x1 = 0.2183	4.25	4.13	4.07	4.02
x1 = 0.2907	4.86	4.75	4.69	4.65
x1 = 0.3787	5.51	5.38	5.33	5.29
x1 = 0.4429	5.92	5.79	5.73	5.69
x1 = 0.5298	6.4	6.26	6.17	6.13
x1 = 0.6052	6.71	6.56	6.45	6.42
x1 = 0.6947	6.97	6.82	6.67	6.62
x1 = 0.7486	7.03	6.88	6.74	6.7
x1 = 0.8273	7.07	6.93	6.77	6.7
x1 = 0.8964	7	6.85	6.69	6.54
x1 = 0.9481	6.86	6.7	6.53	6.42
x1 = 0.9765	6.76	6.61	6.42	6.32
